In PubChem BioAssay (NCI):
Several values for one entry are separate records, joined by “and”; a condition that tells them apart may be missing. Identical values can stand only once.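 Compound exposure: 48 hours, 5 concentrations, 96-well plates. GI50 marks 50% less growth. The concentration for full growth arrest is given as TGI.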

Tests used:
DU-145 prostate = test: growth of human tumour cells (NCI), 48 h
HS 578T breast = test: growth of human tumour cells (NCI), 48 h

In the case of `CC(=O)N[C@@H](Cc1ccc(OP(=O)(O)O)cc1)C(=O)N[C@H]1CCC(=O)N2CCC[C@@H](C(=O)NCc3cccc4ccccc34)N2C1=O`, the GI50 (DU-145 prostate) is reported as over 25 µM, the TGI (DU-145 prostate) is reported as over 25 µM and the GI50 (HS 578T breast) is reported as over 25 µM. For the same molecule, the TGI (HS 578T breast) was over 25 µM.
With `Nc1nc(N)c2cc(Sc3ccc(Cl)cc3)ccc2n1` the GI50 (DU-145 prostate) was 1.9 µM, the TGI (DU-145 prostate) was 14.6 µM and the GI50 (HS 578T breast) was 1.72 µM. The TGI (HS 578T breast) was 12.4 µM.
Work on `CCN1C2=C(SC(=S)C1=C1SC(C(=O)c3ccccc3)=C(C(=O)c3ccccc3)S1)SC(=Nc1ccccc1)C2=O` yielded a GI50 (DU-145 prostate) of 24.6 µM, a TGI (DU-145 prostate) of over 100 µM and a GI50 (HS 578T breast) of 2.58 µM. For the same molecule, the TGI (HS 578T breast) was 72.9 µM.
`Cc1ccc([I+]c2ccc(C)cc2)cc1` was tested, and the GI50 (DU-145 prostate) was 12 µM, the TGI (DU-145 prostate) was over 100 µM and the GI50 (HS 578T breast) was 24.8 µM. It also gave a TGI (HS 578T breast) of over 100 µM.
`CC[n+]1c(/C=C/c2ccc(N3CCCC3)cc2)cccc1/C=C/c1ccc(N2CCCC2)cc1` was tested, and the GI50 (DU-145 prostate) was 0.312 µM and 0.24 µM, the TGI (DU-145 prostate) was 1.19 µM and 1.22 µM and the GI50 (HS 578T breast) was 0.273 µM. The TGI (HS 578T breast) was 1.46 µM.
`Cc1cn2c(/C=N/NC3=NCCN3)c(-c3ccc(Cl)c([N+](=O)[O-])c3)nc2s1` showed a GI50 (DU-145 prostate) of 0.789 µM, a TGI (DU-145 prostate) of 1.89 µM and a GI50 (HS 578T breast) of 1.5 µM. For the same molecule, the TGI (HS 578T breast) was 3.97 µM.
For `Clc1ccc(Nc2ncnc3ccccc23)cc1`, the GI50 (DU-145 prostate) was 26.4 µM, the TGI (DU-145 prostate) was over 100 µM and the GI50 (HS 578T breast) was 37.9 µM. The TGI (HS 578T breast) was over 100 µM.
With `Fc1ccc(-c2nn3c(COc4ccccc4Cl)nnc3s2)cc1Oc1ccccc1` the GI50 (DU-145 prostate) was 39 µM, the TGI (DU-145 prostate) was over 100 µM and the GI50 (HS 578T breast) was 47.6 µM. For the same molecule, the TGI (HS 578T breast) was over 100 µM.
Molecule `COc1ncnn2ccc(-c3cnc4nc(C)n(Cc5nnc(C(C)F)o5)c4c3)c12` (stereo not given) has a GI50 (DU-145 prostate) of 0.288 µM, a TGI (DU-145 prostate) of over 100 µM and a GI50 (HS 578T breast) of 0.265 µM. It also gave a TGI (HS 578T breast) of 7.21 µM.
Molecule `COc1cc2cc(Oc3ccc(NC(=O)Nc4ccc(F)c(C(F)(F)F)c4)cc3)c(C)nc2cc1OCCN1CCOCC1` has a GI50 (DU-145 prostate) of 3.5 µM, a TGI (DU-145 prostate) of 15.2 µM and a GI50 (HS 578T breast) of 2.12 µM. For the same molecule, the TGI (HS 578T breast) was 8.9 µM.
`CCOC(=O)Cc1csc(Nc2nc(O)c(C3=c4ccccc4=NC3=O)s2)n1` showed a GI50 (DU-145 prostate) of 24.6 µM, a TGI (DU-145 prostate) of 56.7 µM and a GI50 (HS 578T breast) of 47 µM. It also gave a TGI (HS 578T breast) of over 100 µM.
With `Nc1n[nH]c2ccc([C@H]3[C@@H]4C5CCC(C5)[C@@H]4c4c(ccc5[nH]ncc45)N3S(=O)(=O)C3CC3)cc12` (stereo not given in full) the GI50 (DU-145 prostate) was 0.212 µM, the TGI (DU-145 prostate) was 26.7 µM and the GI50 (HS 578T breast) was 0.17 µM. It also gave a TGI (HS 578T breast) of 3.31 µM.
`CN(CCNc1ccc(C(=N)N)cc1)c1ccc(C(=N)N)cc1` was tested, and the GI50 (DU-145 prostate) was 19.2 µM, the TGI (DU-145 prostate) was over 100 µM and the GI50 (HS 578T breast) was 16.1 µM. It also gave a TGI (HS 578T breast) of 51.9 µM.
With `Nc1ncnc2occ(-c3ccc(NC(=O)Nc4cc(C(F)(F)F)ccc4F)cc3)c12` the GI50 (DU-145 prostate) was 7.01 µM and 2.68 µM, the TGI (DU-145 prostate) was 21.1 µM and 9.28 µM and the GI50 (HS 578T breast) was 0.773 µM and 2.09 µM. The TGI (HS 578T breast) was 9.1 µM and 9.04 µM.
For `NNC(=S)N/N=C/c1ccccn1`, the GI50 (DU-145 prostate) was 1.85 µM, the TGI (DU-145 prostate) was over 100 µM and the GI50 (HS 578T breast) was 3.86 µM. It also gave a TGI (HS 578T breast) of over 100 µM.
For `CC12OC(C(=O)C13CC3)C1C(=O)c3cccc(O)c3C(=O)C12` (stereo not given), the GI50 (DU-145 prostate) was 15.3 µM, the TGI (DU-145 prostate) was 56.2 µM and the GI50 (HS 578T breast) was 25.8 µM. For the same molecule, the TGI (HS 578T breast) was 82.1 µM.
Molecule `O=C(O)c1ccc(NCn2nc(-c3ccccc3O)oc2=S)cc1O` has a GI50 (HS 578T breast) of over 100 µM and a TGI (HS 578T breast) of over 100 µM.
Work on `Nc1cc2c(c3ccccc13)C(CCl)CN2C(=O)c1cc2cc(NC(=O)c3cc4ccccc4o3)ccc2[nH]1` (stereo not given) yielded a TGI (DU-145 prostate) of 142 µM.
Work on `CO[C@@H]1[C@H](N(C)C(=O)c2ccccc2)C[C@@H]2O[C@]1(C)n1c3ccccc3c3c4c(c5c6ccccc6n2c5c31)C(=O)NC4=O` yielded a GI50 (DU-145 prostate) of 6.81 µM, a TGI (DU-145 prostate) of over 100 µM and a GI50 (HS 578T breast) of 0.461 µM. For the same molecule, the TGI (HS 578T breast) was over 100 µM.
Work on `Cc1cc(S(=O)(=O)Nc2n[nH]c(-c3ccc(Cl)cc3)c2C#N)c(S)cc1Cl` yielded a GI50 (DU-145 prostate) of over 100 µM, a TGI (DU-145 prostate) of over 100 µM and a GI50 (HS 578T breast) of 35.8 µM. For the same molecule, the TGI (HS 578T breast) was over 100 µM.
For `COc1ccc(/C=C/C(=O)c2ccc(B(O)O)cc2)cc1O`, the GI50 (DU-145 prostate) was 6.21 µM, the TGI (DU-145 prostate) was 28.9 µM and the GI50 (HS 578T breast) was 12.6 µM. The TGI (HS 578T breast) was over 100 µM.
In the case of `O=C(NCCNc1nccc(-c2c(-c3ccc(F)cc3)nc3sccn23)n1)Nc1cccc(C(F)(F)F)c1`, the GI50 (DU-145 prostate) is reported as 11.6 µM, the TGI (DU-145 prostate) is reported as 30.9 µM and the GI50 (HS 578T breast) is reported as 8.17 µM. The TGI (HS 578T breast) was 65.5 µM.
`COC(=O)Nc1nc2ccc(C(=O)C3CC3)cc2[nH]1` was tested, and the GI50 (DU-145 prostate) was 0.256 µM, the TGI (DU-145 prostate) was 1.11 µM and the GI50 (HS 578T breast) was 0.28 µM. For the same molecule, the TGI (HS 578T breast) was 0.853 µM.
In the case of `CN1CCN(C(=O)OCc2nc3c(N4CCOCC4)nc(-c4ccccc4)nc3n2C)CC1`, the GI50 (DU-145 prostate) is reported as 1.19 µM, the TGI (DU-145 prostate) is reported as 2.48 µM and the GI50 (HS 578T breast) is reported as 1.23 µM. For the same molecule, the TGI (HS 578T breast) was 3.93 µM.
Work on `N#C/C(=C\c1ccc([N+](=O)[O-])cc1)n1nnc2cc(F)c(F)cc21` yielded a GI50 (DU-145 prostate) of 1.72 µM, a TGI (DU-145 prostate) of 3.14 µM and a GI50 (HS 578T breast) of 2.65 µM. The TGI (HS 578T breast) was 11.4 µM.
For `COc1ccc(-c2nc(Nc3ccc(F)cc3)nc(Nc3ccc4c(c3)nc(C)n4Cc3ccccc3)n2)cc1`, the GI50 (DU-145 prostate) was 7.59 µM, the TGI (DU-145 prostate) was over 100 µM and the GI50 (HS 578T breast) was 6.63 µM. The TGI (HS 578T breast) was over 100 µM.
Molecule `O=C(NCCCNc1cc(-c2cn(-c3ccccc3)nc2-c2cccc(O)c2)ccn1)c1ccc(F)cc1` has a GI50 (DU-145 prostate) of 4.63 µM, a TGI (DU-145 prostate) of 53.4 µM and a GI50 (HS 578T breast) of 2.58 µM. For the same molecule, the TGI (HS 578T breast) was 10.8 µM.
Molecule `CC(=O)NS(=O)(=O)c1ccc(-n2nc(-c3ccccc3)cc2-c2cc(O)ccc2O)cc1` has a GI50 (HS 578T breast) of over 100 µM and a TGI (HS 578T breast) of over 100 µM.
